These results are taken from the Kinase Knowledgebase extract (Sharma et al. 2016).

What is called inhibition is the drop in the measured response relative to a control, in per cent.

The target in this experiment is CDK2 (UniProt P24941). Put plainly: Enzyme Assay. To be noted: concentration not given here.

Compound `CS(=O)(=O)c1ccccc1S(=O)(=O)Nc1ccc2[nH]nc(-c3cc4ccccc4s3)c2c1` registered an inhibition of 63%.

As to `CS(=O)(=O)c1ccccc1S(=O)(=O)Nc1ccc2[nH]nc(-c3ccc(Br)cc3F)c2c1`, the inhibition is 65%.

Take `CS(=O)(=O)c1ccccc1S(=O)(=O)Nc1ccc2[nH]nc(-c3cc(C(F)(F)F)cc(C(F)(F)F)c3)c2c1`: the inhibition was 28%.

Turning to `CC(=O)c1ccc(-c2n[nH]c3ccc(NS(=O)(=O)c4ccccc4S(C)(=O)=O)cc23)cc1`, the inhibition came to 56%.

With `CS(=O)(=O)c1ccccc1S(=O)(=O)Nc1ccc2[nH]nc(-c3cccc(Cl)c3Cl)c2c1`, the inhibition is 0%.

As for `CN(C)c1c(F)c(F)c(S(=O)(=O)Nc2ccc3[nH]nc(-c4cc5ccccc5[nH]4)c3c2)c(F)c1F`, the inhibition came out at 53%.

Consider `Nc1n[nH]c2ccc(NS(=O)(=O)c3c(F)cccc3F)cc12`, for which the inhibition was 12%.

As to `CS(=O)(=O)c1ccccc1S(=O)(=O)Nc1ccc2[nH]nc(-c3ccc(I)cc3)c2c1`, the inhibition worked out at 20%.

In turn, `COc1cccc(S(=O)(=O)Nc2ccc3[nH]nc(-c4ccccc4)c3c2)c1` registered an inhibition of 68%.

As to `CS(=O)(=O)c1ccccc1S(=O)(=O)Nc1ccc2[nH]nc(-c3cc(Cl)cc(Cl)c3)c2c1`, the inhibition amounted to 50%.

Compound `CS(=O)(=O)c1ccccc1S(=O)(=O)Nc1ccc2[nH]nc(-c3cccc([N+](=O)[O-])c3)c2c1` had an inhibition of 82%.

`CS(=O)(=O)c1ccccc1S(=O)(=O)Nc1ccc2[nH]nc(-c3ccc(F)c(F)c3)c2c1` displayed an inhibition of 72%.

As to `CCSc1ccc(-c2n[nH]c3ccc(NS(=O)(=O)c4ccccc4S(C)(=O)=O)cc23)cc1`, the inhibition was determined as 77%.

`CS(=O)(=O)c1ccccc1S(=O)(=O)Nc1ccc2[nH]nc(-c3cc4cccnc4[nH]3)c2c1` came in with an inhibition of 0%.

As for `CS(=O)(=O)c1ccccc1S(=O)(=O)Nc1ccc2[nH]nc(-c3ccc(Cl)c(Cl)c3)c2c1`, the inhibition amounted to 66%.

Compound `Cc1cc(C)cc(-c2n[nH]c3ccc(NS(=O)(=O)c4ccccc4S(C)(=O)=O)cc23)c1` registered an inhibition of 72%.

For `CS(=O)(=O)c1ccccc1S(=O)(=O)Nc1ccc2[nH]nc(-c3cccc(C#N)c3)c2c1`, the inhibition stood at 90%.

Turning to `CS(=O)(=O)c1ccccc1S(=O)(=O)Nc1ccc2[nH]nc(-c3cc(F)cc(F)c3)c2c1`, the inhibition was 74%.

Regarding `CS(=O)(=O)c1ccccc1S(=O)(=O)Nc1ccc2[nH]nc(-c3ccc(Cl)cc3)c2c1`, the inhibition came out at 96%.

`COC(=O)/C=C/c1n[nH]c2ccc(NS(=O)(=O)c3ccccc3S(C)(=O)=O)cc12`: the inhibition stood at 37%.

As to `CS(=O)(=O)c1ccccc1S(=O)(=O)Nc1ccc2[nH]nc(-c3cccc(F)c3F)c2c1`, the inhibition was determined as 50%.

For `CC(=O)Nc1n[nH]c2ccc(NS(=O)(=O)c3ccccc3S(C)(=O)=O)cc12`, the inhibition worked out at 96%.

On to `CC(=O)Nc1ccc(S(=O)(=O)Nc2ccc3[nH]nc(-c4ccccc4)c3c2)cc1`, for which the inhibition came out at 73%.

`CS(=O)(=O)c1ccccc1S(=O)(=O)Nc1ccc2[nH]nc(-c3ccc[nH]3)c2c1` had an inhibition of 99%.

The compound `CS(=O)(=O)c1ccccc1S(=O)(=O)Nc1ccc2[nH]nc(-c3cc(Cl)ccc3Cl)c2c1` showed an inhibition of 27%.

Regarding `O=C(NCc1ccc(S(=O)(=O)Nc2ccc3[nH]nc(-c4ccccc4)c3c2)s1)c1ccccc1`, the inhibition came to 40%.

Turning to `CS(=O)(=O)c1ccccc1S(=O)(=O)Nc1ccc2[nH]nc(-c3cc4ccccc4[nH]3)c2c1`, the inhibition amounted to 99%.

Compound `CCOc1cccc(-c2n[nH]c3ccc(NS(=O)(=O)c4ccccc4S(C)(=O)=O)cc23)c1` displayed an inhibition of 60%.

For the compound `CS(=O)(=O)c1ccccc1S(=O)(=O)Nc1ccc2[nH]nc(-c3ccc(OCc4ccccc4)c(F)c3)c2c1`, the inhibition worked out at 41%.

As for `O=S(=O)(Nc1ccc2[nH]nc(-c3ccccc3)c2c1)c1ccc(Cl)s1`, the inhibition came to 65%.

On to `O=[N+]([O-])c1ccc(S(=O)(=O)Nc2ccc3[nH]nc(-c4ccccc4)c3c2)cc1`, for which the inhibition is 50%.
